Common to all, as to type: functional
Experiment [1] relates to Mus musculus. The experiment can be described thus: Antiinflammatory activity in mouse assessed as inhibition of TPA-induced ear edema at 400 nmol.
The subject of experiment [2] is Mus musculus. The experiment can be described thus: Antiinflammatory activity in mouse assessed as inhibition of TPA-induced ear edema at 560 nmol.
Experiment [3] concerns Mus musculus. Nature of the experiment: Antiinflammatory activity in mouse assessed as inhibition of TPA-induced ear edema at 430 nmol.

In the case of `C=C(CC[C@@H](C)[C@H]1CC[C@@]2(C)C3=C(C[C@H](O)[C@]12C)[C@@]1(C)CC[C@@H](OC(=O)C[C@](C)(O)CC(=O)OC)C(C)(C)[C@@H]1CC3)[C@H](C)C(=O)O`, in experiment [1], the “inhibition (INH)” value came out at 86%.

For the compound `C=C(CC[C@@H](C)[C@H]1CC[C@@]2(C)C3=C(C[C@H](O)[C@]12C)[C@@]1(C)CC[C@@H](OC(=O)CC(C)(O)CC(=O)OC)C(C)(C)[C@@H]1CC3)[C@H](C)C(=O)O` (some centres not stated), in experiment [1], the “inhibition (INH)” value was determined as 75%.

`COc1ccc2c(c1)c(CC(=O)O)c(C)n2C(=O)c1ccc(Cl)cc1` [INDOMETHACIN]: in experiment [2], the “inhibition (INH)” value is recorded as 16%.

For `C=C(CC[C@@H](C)[C@H]1CC[C@@]2(C)C3=C(C[C@H](O)[C@]12C)[C@@]1(C)CC[C@@H](O)C(C)(C)[C@@H]1CC3)[C@H](C)C(=O)O` [POLYPORENIC ACID A], in experiment [1], the “inhibition (INH)” value turned out to be 64%.

`CC1(C)[C@@H](O)CC[C@]2(C)[C@H]3C(=O)C=C4[C@@H]5C[C@@](C)(C(=O)O)CC[C@]5(C)CC[C@@]4(C)[C@]3(C)CC[C@@H]12` [ENOXOLONE]: the “inhibition (INH)” value in experiment [3] is reported as 24%.

With `C=C(CC[C@@H](C(=O)O)[C@H]1[C@H](O)C[C@@]2(C)C3=CC[C@H]4C(C)(C)C(=O)CC[C@]4(C)C3=CC[C@]12C)C(C)C` [POLYPORENIC ACID B], the “inhibition (INH)” value in experiment [1] is reported as 49%.

Take `C=C(CC[C@@H](C)[C@H]1CC[C@@]2(C)C3=C(C[C@H](O)[C@]12C)[C@@]1(C)CC[C@@H](OC(=O)CC(=O)O)C(C)(C)[C@@H]1CC3)[C@H](C)C(=O)O`: the “inhibition (INH)” value in experiment [1] is reported as 65%.

The record behind these values is ChEMBL document CHEMBL1146576, “Anti-inflammatory lanostane-type triterpene acids from Piptoporus betulinus” (2003).
